Laboratory results reported in ChEMBL document CHEMBL1201862, “PubChem BioAssay data set” (2004).
Activity calls are given as the source filed them.

Columns and labels:
[1] = biological target: T1, Dual specificity protein phosphatase 3 (Homo sapiens, UniProt P51452); test: SAR VHR1 Fluorescent Assay for In Vitro dose response studies Set 2. [Related pubchem assays (depositor defined):AID1654, AID1661, AID1878]; format: functional
[2] = biological target: T2, Tyrosine-protein phosphatase non-receptor type 7 (Homo sapiens, UniProt P35236); test: SAR analysis of chemical inhibitors of HePTP using a Fluorescent assay - Set 2. [Related pubchem assays (depositor defined):AID1059, AID1077, AID1661, AID2085, AID521]; format: functional
T2 sequence (P35236 whole entry): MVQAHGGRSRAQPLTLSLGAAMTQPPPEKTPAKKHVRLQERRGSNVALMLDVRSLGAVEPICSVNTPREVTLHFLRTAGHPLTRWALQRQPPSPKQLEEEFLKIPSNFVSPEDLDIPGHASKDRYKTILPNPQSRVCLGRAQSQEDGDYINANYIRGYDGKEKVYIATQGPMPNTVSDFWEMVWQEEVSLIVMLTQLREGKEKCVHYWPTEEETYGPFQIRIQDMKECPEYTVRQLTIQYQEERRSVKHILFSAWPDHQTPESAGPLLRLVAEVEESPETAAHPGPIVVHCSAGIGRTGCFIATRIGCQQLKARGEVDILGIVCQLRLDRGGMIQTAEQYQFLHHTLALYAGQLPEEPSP

[3] = biological target: Alkaline phosphatase, placental type (Homo sapiens, UniProt P05187); test: human placental alkaline phosphatase inhibition – biochemical, luminescence, confirmation (AID 1512); format: functional
[4] = biological target: Metabotropic glutamate receptor 4 (Rattus norvegicus, UniProt P31423); test: Modulation of the Metabotropic Glutamate Receptor mGluR4: Rat PAM Potency. [Related pubchem assays (depositor defined):AID2437, AID2807]; format: functional
[5] = biological target: Metabotropic glutamate receptor 4 (Homo sapiens, UniProt Q14833); test: Modulation of the Metabotropic Glutamate Receptor mGluR4: Potency at human mGluR4. Modulation of intracellular Ca2+ using Fluo-4, AM, in CHO expressing recombinant receptor [Related pubchem assays (depositor defined):AID2437, AID2807]; format: functional, cell-based
[6] = biological target: Protein phosphatase methylesterase 1 (Homo sapiens, UniProt Q9Y570); test: endogenous PME-1 and serine hydrolase inhibition – cell lysate, mouse brain cytosol, FP-rhodamine, gel ABPP, selectivity assay for PME-1 inhibitor project, dose response, panel member PME-1 Assay Panel member description: Inhibition of endogenously expressed PME-1 (AID 2366)
Insulin-degrading enzyme = Insulin-degrading enzyme (Homo sapiens, UniProt P14735); test: Dose Response: Fluorescence polarization-based cell-based high throughput dose response assay for inhibitors of insulin-degrading enzyme (IDE). [Related pubchem assays: 434962 (Primary screen (IDE inhibitors in singlicate)), 449730 (Counterscreen (Cytotoxicity in triplicate)), 435028 (Confirmation (IDE inhibitors in triplicate)), 434984 (Summary …; format: functional
[7] = Counterscreen for IDE inhibitors: Luminescence-based cell-based high throughput dose response assay to identify compounds that are cytotoxic to HEK cells. [Related pubchem assays: 434962 (Primary screen (IDE inhibitors in singlicate)), 449730 (Counterscreen (Cytotoxicity in triplicate)), 435028 (Confirmation (IDE inhibitors in triplicate)) …; format: functional; conditions: HEK293
Staphylococcus aureus = test: Inhibitors of Bacterial Quorum Sensing Structure Activity Relationship (SAR) Analysis: Dose Response Assay. [Related pubchem assays: 700, 527 ]; format: functional, organism-based
[8] = biological target: Acyl-homoserine lactone acylase PvdQ (Pseudomonas aeruginosa (strain LESB58), UniProt Q9I194); test: PvdQ acylase enzyme activity blockers – biochemical, fluorescence, plate reader and imaging, cherry-picks, dose response (AID 493231)
[9] = biological target: T3, Mannose-6-phosphate isomerase (Homo sapiens, UniProt P34949); test: MPI enzyme activity inhibition – biochemical, fluorescence intensity, coupled assay, primary screen (AID 1209)
T3 sequence (P34949 whole entry): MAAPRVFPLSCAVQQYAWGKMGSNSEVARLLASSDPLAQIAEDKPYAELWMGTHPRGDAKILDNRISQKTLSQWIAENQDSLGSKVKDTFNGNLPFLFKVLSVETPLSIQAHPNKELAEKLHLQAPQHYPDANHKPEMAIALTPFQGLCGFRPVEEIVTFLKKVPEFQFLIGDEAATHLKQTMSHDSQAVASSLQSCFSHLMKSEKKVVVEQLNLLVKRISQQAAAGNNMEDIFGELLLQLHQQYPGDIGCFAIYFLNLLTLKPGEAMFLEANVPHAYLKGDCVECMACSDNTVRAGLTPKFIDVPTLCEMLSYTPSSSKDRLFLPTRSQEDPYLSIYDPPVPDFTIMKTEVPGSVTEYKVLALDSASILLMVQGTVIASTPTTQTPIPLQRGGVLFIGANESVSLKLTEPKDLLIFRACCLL

Procathepsin L = Procathepsin L (Homo sapiens, UniProt P07711)
[10] = biological target: Glucose-6-phosphate 1-dehydrogenase (Homo sapiens, UniProt P11413); test: inhibition of Homo sapiens G6PD, dose series – biochemical, fluorescence, selectivity assay for P. falciparum G6PD inhibitor project, dose response (AID 504792); format: functional
Aspartyl aminopeptidase = Aspartyl aminopeptidase (Plasmodium falciparum 3D7, UniProt Q8I2J3)
Wee1-like protein kinase = Wee1-like protein kinase (Homo sapiens, UniProt P30291); test: HeLa cell cycle G2/M accumulation – FACS, mechanism study for Wee1 degradation inhibitor project, late-stage follow-up, panel member Wee1 Degradation (AID 2088)
[11] = biological target: G2/mitotic-specific cyclin-B1 (Homo sapiens, UniProt P14635); test: HeLa cell cycle G2/M accumulation – FACS, mechanism study for Wee1 degradation inhibitor project, late-stage follow-up, panel member Cyclin B Degradation (AID 2088)
[12] = biological target: Mothers against decapentaplegic homolog 3 (Homo sapiens, UniProt P84022); test: blockers of Smad3 complex formation in lysate – cell lysate, secondary confirmation, chemiluminescent ELISA, HEK293 lysate, dose response (AID 1058); format: functional
[13] = biological target: T1, Dual specificity protein phosphatase 3; test: inhibition constants for human DUSP3 – biochemical, colorimetric, SAR follow-up (AID 2004)

T1 sequence (P51452 whole entry): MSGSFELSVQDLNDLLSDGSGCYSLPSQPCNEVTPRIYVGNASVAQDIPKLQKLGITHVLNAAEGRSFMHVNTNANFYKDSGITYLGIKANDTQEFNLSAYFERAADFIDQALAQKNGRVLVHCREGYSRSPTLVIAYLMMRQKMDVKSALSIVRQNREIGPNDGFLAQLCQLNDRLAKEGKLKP
Sequence of Mothers against decapentaplegic homolog 3 (P84022 whole entry): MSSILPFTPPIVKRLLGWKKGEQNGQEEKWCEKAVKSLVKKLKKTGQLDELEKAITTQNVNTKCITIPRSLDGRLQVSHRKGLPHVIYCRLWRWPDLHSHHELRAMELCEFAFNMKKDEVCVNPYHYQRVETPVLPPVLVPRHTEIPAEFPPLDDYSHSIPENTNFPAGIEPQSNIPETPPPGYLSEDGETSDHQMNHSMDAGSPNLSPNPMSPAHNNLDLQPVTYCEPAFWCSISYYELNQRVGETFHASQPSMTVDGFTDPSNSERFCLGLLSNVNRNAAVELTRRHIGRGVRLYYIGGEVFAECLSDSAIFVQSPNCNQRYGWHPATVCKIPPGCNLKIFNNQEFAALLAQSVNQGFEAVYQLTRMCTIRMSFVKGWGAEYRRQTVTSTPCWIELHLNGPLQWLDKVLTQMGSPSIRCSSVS
Sequence of Alkaline phosphatase, placental type (P05187 whole entry): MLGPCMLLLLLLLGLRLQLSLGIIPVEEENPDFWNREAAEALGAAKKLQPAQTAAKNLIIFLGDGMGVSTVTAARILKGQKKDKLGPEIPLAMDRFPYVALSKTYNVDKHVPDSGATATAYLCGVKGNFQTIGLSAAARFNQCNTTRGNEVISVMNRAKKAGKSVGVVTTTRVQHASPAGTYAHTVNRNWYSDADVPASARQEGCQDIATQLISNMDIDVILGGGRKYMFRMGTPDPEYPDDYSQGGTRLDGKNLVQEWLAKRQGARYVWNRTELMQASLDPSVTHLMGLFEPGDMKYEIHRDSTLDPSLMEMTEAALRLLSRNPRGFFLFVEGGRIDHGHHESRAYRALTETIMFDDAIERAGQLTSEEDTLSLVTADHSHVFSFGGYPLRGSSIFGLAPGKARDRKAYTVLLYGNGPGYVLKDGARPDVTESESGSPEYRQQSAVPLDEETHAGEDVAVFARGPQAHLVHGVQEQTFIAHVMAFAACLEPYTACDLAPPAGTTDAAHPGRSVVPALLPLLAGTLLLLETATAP
Sequence of Metabotropic glutamate receptor 4 (Rattus norvegicus, UniProt P31423) (P31423 whole entry): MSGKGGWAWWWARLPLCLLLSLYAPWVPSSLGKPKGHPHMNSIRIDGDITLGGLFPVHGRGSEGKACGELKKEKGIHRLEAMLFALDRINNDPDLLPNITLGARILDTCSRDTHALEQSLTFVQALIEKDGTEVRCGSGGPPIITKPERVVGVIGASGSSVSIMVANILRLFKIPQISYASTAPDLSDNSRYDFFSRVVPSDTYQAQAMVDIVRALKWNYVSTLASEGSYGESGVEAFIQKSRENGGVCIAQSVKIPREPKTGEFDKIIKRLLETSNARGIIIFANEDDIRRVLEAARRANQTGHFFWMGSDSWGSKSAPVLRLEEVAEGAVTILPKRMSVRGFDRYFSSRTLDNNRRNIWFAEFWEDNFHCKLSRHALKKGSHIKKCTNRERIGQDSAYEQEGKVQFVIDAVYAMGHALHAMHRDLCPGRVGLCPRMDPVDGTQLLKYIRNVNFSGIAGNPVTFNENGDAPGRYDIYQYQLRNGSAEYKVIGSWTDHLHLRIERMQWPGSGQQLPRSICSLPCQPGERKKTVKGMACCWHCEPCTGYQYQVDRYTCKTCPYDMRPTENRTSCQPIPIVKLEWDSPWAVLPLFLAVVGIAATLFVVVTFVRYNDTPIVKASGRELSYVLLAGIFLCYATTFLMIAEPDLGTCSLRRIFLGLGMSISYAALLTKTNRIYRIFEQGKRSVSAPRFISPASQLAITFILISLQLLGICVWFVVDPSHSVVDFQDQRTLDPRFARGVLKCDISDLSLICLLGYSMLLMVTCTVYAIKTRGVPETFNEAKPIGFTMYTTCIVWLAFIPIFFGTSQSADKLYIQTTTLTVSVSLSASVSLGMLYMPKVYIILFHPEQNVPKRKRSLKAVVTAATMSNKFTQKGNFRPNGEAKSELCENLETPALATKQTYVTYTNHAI
Sequence of Aspartyl aminopeptidase (Q8I2J3 whole entry): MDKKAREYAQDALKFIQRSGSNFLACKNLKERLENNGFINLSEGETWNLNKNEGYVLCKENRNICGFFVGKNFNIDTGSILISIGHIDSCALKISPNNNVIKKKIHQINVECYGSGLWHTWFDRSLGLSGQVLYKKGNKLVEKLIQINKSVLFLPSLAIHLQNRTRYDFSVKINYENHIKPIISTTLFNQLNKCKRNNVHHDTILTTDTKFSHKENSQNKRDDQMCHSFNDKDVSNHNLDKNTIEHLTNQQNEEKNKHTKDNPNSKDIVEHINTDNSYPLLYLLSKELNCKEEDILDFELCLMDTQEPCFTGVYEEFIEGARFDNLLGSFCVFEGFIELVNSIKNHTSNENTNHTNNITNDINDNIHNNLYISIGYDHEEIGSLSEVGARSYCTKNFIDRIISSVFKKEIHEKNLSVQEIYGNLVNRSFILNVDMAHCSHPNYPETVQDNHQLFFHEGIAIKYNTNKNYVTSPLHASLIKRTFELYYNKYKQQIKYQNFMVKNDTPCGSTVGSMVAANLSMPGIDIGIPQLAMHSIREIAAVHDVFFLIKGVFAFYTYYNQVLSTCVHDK
Sequence of Glucose-6-phosphate 1-dehydrogenase (P11413 whole entry): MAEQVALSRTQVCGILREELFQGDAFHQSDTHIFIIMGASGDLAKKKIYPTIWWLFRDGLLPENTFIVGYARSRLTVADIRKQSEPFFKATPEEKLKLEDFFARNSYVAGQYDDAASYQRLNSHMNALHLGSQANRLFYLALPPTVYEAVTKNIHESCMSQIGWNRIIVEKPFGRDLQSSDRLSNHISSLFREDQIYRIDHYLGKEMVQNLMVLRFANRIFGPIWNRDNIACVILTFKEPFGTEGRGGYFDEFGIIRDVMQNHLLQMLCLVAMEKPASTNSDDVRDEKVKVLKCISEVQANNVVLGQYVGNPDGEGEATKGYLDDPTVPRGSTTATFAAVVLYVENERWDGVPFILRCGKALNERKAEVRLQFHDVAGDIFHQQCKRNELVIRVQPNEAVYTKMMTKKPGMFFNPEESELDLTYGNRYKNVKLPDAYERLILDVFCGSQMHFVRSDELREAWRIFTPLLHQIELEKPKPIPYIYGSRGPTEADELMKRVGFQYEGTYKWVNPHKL
Sequence of Acyl-homoserine lactone acylase PvdQ (Q9I194 24-193 limits assumed): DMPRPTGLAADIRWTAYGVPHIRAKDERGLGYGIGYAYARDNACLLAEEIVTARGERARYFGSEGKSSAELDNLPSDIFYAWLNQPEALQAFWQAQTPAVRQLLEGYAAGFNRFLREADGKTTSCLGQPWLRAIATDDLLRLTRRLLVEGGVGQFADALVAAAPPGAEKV
Sequence of Acyl-homoserine lactone acylase PvdQ (Q9I194 217-762 limits assumed): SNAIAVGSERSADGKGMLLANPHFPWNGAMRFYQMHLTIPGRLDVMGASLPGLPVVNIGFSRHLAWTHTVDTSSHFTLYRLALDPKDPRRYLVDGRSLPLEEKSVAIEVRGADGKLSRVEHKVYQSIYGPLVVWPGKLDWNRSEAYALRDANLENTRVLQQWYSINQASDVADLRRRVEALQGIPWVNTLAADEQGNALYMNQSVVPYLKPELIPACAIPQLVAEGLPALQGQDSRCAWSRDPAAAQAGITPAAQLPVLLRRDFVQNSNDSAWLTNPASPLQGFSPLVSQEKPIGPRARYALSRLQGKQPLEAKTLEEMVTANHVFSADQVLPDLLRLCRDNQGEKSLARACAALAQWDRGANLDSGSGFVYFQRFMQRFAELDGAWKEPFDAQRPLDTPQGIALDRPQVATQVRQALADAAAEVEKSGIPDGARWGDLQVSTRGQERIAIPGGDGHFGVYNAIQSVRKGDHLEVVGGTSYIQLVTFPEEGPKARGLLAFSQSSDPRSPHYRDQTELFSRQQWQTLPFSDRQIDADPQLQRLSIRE
Sequence of Procathepsin L (P07711 whole entry): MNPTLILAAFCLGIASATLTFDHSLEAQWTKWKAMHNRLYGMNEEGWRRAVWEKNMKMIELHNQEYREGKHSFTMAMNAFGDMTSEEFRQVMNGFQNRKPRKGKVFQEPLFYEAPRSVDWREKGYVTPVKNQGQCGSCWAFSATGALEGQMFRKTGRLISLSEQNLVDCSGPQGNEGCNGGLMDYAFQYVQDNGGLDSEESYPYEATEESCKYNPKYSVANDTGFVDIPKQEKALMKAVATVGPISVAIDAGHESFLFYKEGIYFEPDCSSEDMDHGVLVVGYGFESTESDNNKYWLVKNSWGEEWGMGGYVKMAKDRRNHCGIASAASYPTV
Sequence of Protein phosphatase methylesterase 1 (Q9Y570 whole entry): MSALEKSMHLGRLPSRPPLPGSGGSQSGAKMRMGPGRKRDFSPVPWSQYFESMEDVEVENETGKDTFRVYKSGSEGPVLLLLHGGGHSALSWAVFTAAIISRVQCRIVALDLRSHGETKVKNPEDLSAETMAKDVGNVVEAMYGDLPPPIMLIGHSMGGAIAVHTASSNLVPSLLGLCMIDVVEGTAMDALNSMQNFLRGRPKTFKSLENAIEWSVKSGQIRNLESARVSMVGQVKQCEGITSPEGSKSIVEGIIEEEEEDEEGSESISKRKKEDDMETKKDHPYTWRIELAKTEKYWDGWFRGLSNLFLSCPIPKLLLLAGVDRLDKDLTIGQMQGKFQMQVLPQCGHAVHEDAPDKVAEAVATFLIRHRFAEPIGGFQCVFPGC

## Cc1ccc(NC(=S)NNC(=O)c2ccccc2OC(F)F)cc1
[1]
  IC50: > 100 µM (inactive)
[2]
  IC50: > 100 µM (inactive)
[3]
  IC50: > 100 µM (inactive)

## O=C(Nc1ccc2c(c1)OCO2)c1ccccn1
[4]
  EC50: 7.17 µM (active)
[5]
  EC50: 9.66 µM (active)

## N#C/C(=C\c1cccn1S(=O)(=O)c1ccccc1)C(=O)c1ccccc1
[6]
  IC50: > 20 µM (inactive)

## CCN(CC)c1ccc(C=C(c2nnnn2-c2ccccc2)c2nnnn2-c2ccccc2)cc1
Insulin-degrading enzyme
  IC50: > 55.9 µM (not active)
[7]
  IC50: > 55.7 µM (not active)

## O=C(O)c1ccccc1NC(c1ccccc1)c1ccc(Cl)cc1 (stereo not drawn)
Staphylococcus aureus
  IC50: 0.448 µM (active)

## Cc1cccc(NC(=O)Nc2cc(C)on2)c1
[8]
  AC50: 7.61 µM (active)

## CC1(C)CC2(CC(c3ccccc3F)c3ccc(O)c(O)c3O2)NC(=S)N1 (stereo not drawn)
[9]
  IC50: 39.9 µM (active)
Procathepsin L
  IC50: > 59.6 µM (not active)
[10]
  IC50: > 80 µM (inactive)
Aspartyl aminopeptidase
  IC50: 1.76 µM (active)

## Cc1cccc(NC(=O)CCCOc2cc(=O)n(C)c3ccccc23)n1
Wee1-like protein kinase
  EC50: > 49.7 µM (inactive)
[11]
  EC50: > 49.7 µM (inactive)

## COc1cccc(C(c2cc3c(cc2O)OCO3)N2CCCC2)c1O (stereo not drawn)
[12]
  IC50: < 2.5 µM (not active)

## COc1ccc(-c2cc(C(=O)NCCc3ccccc3)c3ccccc3n2)c(OC)c1
[13]
  Ki: 27.9 µM (inactive)
